Assay: Photochemical cleavage assays of incorporated nucleotide analogs (365 nm UV light, DT50)
Assay type: physicochemical
Settings: for DT50 in 1 mM NaN3, 50 mM DTT / DT50 in 1 mM NaN3, No DTT: 365 nm UV, 0.70 W/cm^2; for faster photochemical cleavage rates of ds2 isomers compared with their ds1 counterparts, factor: ds2 vs ds1 isomer of the same analog; for DT50 values: UV photochemical cleavage experiments; for rate increases, dG.V.c compared with dG.V.a: same isomer (ds1 or ds2) of dG.V.c vs dG.V.a; for faster photochemical cleavage rates compared with the corresponding 4-OMe isomers: α-tert-butyl C^7-HOMedG analogs, 5-OMe vs 4-OMe; for DT50 value of ds1 isomer compared with the parent dA.I analog: ds1 isomers of the α-isopropyl C^7-HOMedA set
Protocol: As used herein, the term “DT50” refers to the amount of time required to cleavage 50% of the base analog incorporated in the primer-template complex.
To compare the rates of photochemical cleavage between the nucleotide analogs described here, a protocol was developed to deliver a daily light intensity output of 0.70±0.01 W/cm^2 to samples, see below.
The power supply was turned on for about 30 min prior to that of the lamp and recirculation bath as described by the manufacturer. The IR liquid filter was cooled to 9° C. Light intensity was determined using a model PM100 power meter (Thorlabs), a 1000 μm pinhole (Edmund Optics), a modified 0.5 mL Eppendorf tube cut in half, and a 3-axis manual translation stage (Newport), see FIG. 5. The half cut Eppendorf tube was positioned in front of the pinhole and power meter detector head to account for the geometric shape distortion of the light as it passes through a reaction solution. The translation stage was then used to align the tube/pinhole/detector device with the highest intensity from the arc beam.
To stabilize its output, the lamp was left on for one hour prior to intensity measurements. Thereafter, the measured power was adjusted by increasing the current from the power supply. In order to achieve intensity (I) of 0.70 W/cm^2, the measured power (P) was adjusted to ˜5.5 mW, according to the equation:
[formula] where r is the radius of pinhole.
The beam was then focused by placing an 0.5 mL Eppendorf tube into the sample holder, the tube of which was modified with an internal alignment card to provide reference lines for volume heights of 10 μL and 20 μL, see FIG. 5. The reference lines enabled the beam to be centered for a given reaction volume. Beam alignment was further verified by observing the mercury arc image of the lamp produced by the rear reflector. A second alignment card was placed into the rotating sample holder to view the image, which when properly aligned using the reflector would produce an inverted arc image on the arc gap itself. This step ensured that arc hotspots were not superimposed, which could cause overheating while maintaining a power output of ˜5.5 mW. The speed of the rotating sample holder was adjusted within a range of 1,200-1,350 rpm using a Nova-Strobe DA Plus stroboscope (Monarch Instrument) by adjusting the motor's torque with an adjustment screw.
Photochemical cleavage assays: Nucleotide analogs were incorporated using 10 μL reactions, as described for the PEP assays, at a final concentration of 100 nM. […] OligoTemplate-2, oligoTemplate-5, and oligoTemplate-4 each hybridized with BODIPY-FL labeled primer-1 were used for C^7-HOMedA, C^7-HOMedG, and HOMedU analogs, respectively. OligoTemplate-8 hybridized with BODIPY-FL labeled primer-3 was used to assay HOMedC analogs. Incorporated reactions were quenched with either 1 mM sodium azide solution; 1 mM sodium azide, 50 mM DTT solution; or reagents C-G (see key in FIG. 4), exposed to 365 nm ultraviolet (UV) light for various time points using our UV deprotector, and then placed on ice.

[1] = Table 3, reversible terminators
[2] = Table 3, reversible terminators, [a] transient product considered as cleaved product
[3] = Table 2, C^7-HOMedG analogs, average ± 1SD, triplicate
[4] = Table 1, C^7-HOMedA analogs, average ± 1SD, triplicate

Row | Compound | DT50 in 1 mM NaN3, 50 mM DTT [1] [s] | DT50 in 1 mM NaN3, No DTT [2] | faster photochemical cleavage rates of ds2 isomers compared with their ds1 counterparts, factor [×] | DT50 in 1 mM NaN3, 50 mM DTT [4] [s] | DT50 in 1 mM NaN3, No DTT [4] [s] | other results
1 | CC(C)(C)[C@H](OCc1cn([C@H]2C[C@H](O)[C@@H](COP(=O)(O)OP(=O)(O)OP(=O)(O)O)O2)c(=O)nc1N)c1ccccc1[N+](=O)[O-] [dC.V, 5-[(S)-1-(2-nitrophenyl)-2,2-dimethyl-propyloxy]methyl-2′-deoxycytidine-5′-triphosphate] | 1.0 ± 0.2 | 1.2 ± 0.1 s |  |  |  | 
2 | CC(C)(C)C(OCc1cn([C@H]2C[C@H](O)[C@@H](COP(=O)(O)OP(=O)(O)OP(=O)(O)O)O2)c2nc(N)[nH]c(=O)c12)c1ccccc1[N+](=O)[O-] (single isomer, unassigned) [dG.V.a ds2, 7-[1-(2-nitrophenyl)-2,2-dimethyl-propyloxy]methyl-7-deaza-2′-deoxyguanosine-5′-triphosphate] |  |  | 3.1 |  |  | DT50 in 1 mM NaN3, 50 mM DTT [3]: 3.5 ± 0.3 s; DT50 in 1 mM NaN3, No DTT [3]: 3.6 ± 0.3 s
3 | COc1ccc([N+](=O)[O-])c(C(OCc2cn([C@H]3C[C@H](O)[C@@H](COP(=O)(O)OP(=O)(O)OP(=O)(O)O)O3)c3nc(N)[nH]c(=O)c23)C(C)(C)C)c1 (single isomer, unassigned) [dG.V.c ds2, 7-[1-(5-methoxy-2-nitrophenyl)-2,2-dimethyl-propyloxy]methyl-7-deaza-2′-deoxyguanosine-5′-triphosphate] |  |  | 4.4 |  |  | DT50 in 1 mM NaN3, 50 mM DTT [3]: 0.8 ± 0.1 s; DT50 in 1 mM NaN3, No DTT [3]: 0.8 ± 0.1 s; DT50 values: 0.8 s; rate increases, dG.V.c compared with dG.V.a: 4.4 ×; faster photochemical cleavage rates compared with the corresponding 4-OMe isomers: 1.4 × fold
4 | CC(C)C(OCc1cn([C@H]2C[C@H](O)[C@@H](COP(=O)(O)OP(=O)(O)OP(=O)(O)O)O2)c2ncnc(N)c12)c1ccccc1[N+](=O)[O-] (single isomer, unassigned) [dA.III.a ds1, 7-[1-(2-nitrophenyl)-2-methyl-propyloxy]methyl-7-deaza-2′-deoxyadenosine-5′-triphosphate] |  |  |  | 4.4 ± 0.2 | 4.5 ± 0.2 | DT50 value of ds1 isomer compared with the parent dA.I analog: higher
5 | COc1ccc([N+](=O)[O-])c([C@@H](OCc2cn([C@H]3C[C@H](O)[C@@H](COP(=O)(O)OP(=O)(O)OP(=O)(O)O)O3)c3ncnc(N)c23)C(C)(C)C)c1 [dA.VI, 7-[(S)-1-(5-methoxy-2-nitrophenyl)-2,2-dimethyl-propyloxy]methyl-7-deaza-2′-deoxyadenosine-5′-triphosphate] | 0.8 ± 0.1 | 0.8 ± 0.1^[a] sec |  |  |  | 
6 | COc1ccc([N+](=O)[O-])c([C@@H](OCc2cn([C@H]3C[C@H](O)[C@@H](COP(=O)(O)OP(=O)(O)OP(=O)(O)O)O3)c3nc(N)[nH]c(=O)c23)C(C)(C)C)c1 [dG.VI, 7-[(S)-1-(5-methoxy-2-nitrophenyl)-2,2-dimethyl-propyloxy]methyl-7-deaza-2′-deoxyguanosine-5′-triphosphate] | 0.8 ± 0.1 | 0.8 ± 0.1 s |  |  |  | 
7 | COc1ccc(C(OCc2cn([C@H]3C[C@H](O)[C@@H](COP(=O)(O)OP(=O)(O)OP(=O)(O)O)O3)c3ncnc(N)c23)C(C)C)c([N+](=O)[O-])c1 (single isomer, unassigned) [dA.III.b ds2, 7-[1-(4-methoxy-2-nitrophenyl)-2-methyl-propyloxy]methyl-7-deaza-2′-deoxyadenosine-5′-triphosphate] |  |  | 6.4 | 1.0 ± 0.1 | 1.1 ± 0.1 | 
8 | COc1ccc([N+](=O)[O-])c([C@@H](OCc2cn([C@H]3C[C@H](O)[C@@H](COP(=O)(O)OP(=O)(O)OP(=O)(O)O)O3)c(=O)nc2N)C(C)(C)C)c1 [dC.VI, 5-[(S)-1-(5-methoxy-2-nitrophenyl)-2,2-dimethyl-propyloxy]methyl-2′-deoxycytidine-5′-triphosphate] | 0.6 ± 0.1 | 0.6 ± 0.1^[a] sec |  |  |  | 
9 | CC(C)C(OCc1cn([C@H]2C[C@H](O)[C@@H](COP(=O)(O)OP(=O)(O)OP(=O)(O)O)O2)c2ncnc(N)c12)c1c([N+](=O)[O-])cccc1[N+](=O)[O-] (single isomer, unassigned) [dA.III.c ds1, 7-[1-(2,6-dinitrophenyl)-2-methyl-propyloxy]methyl-7-deaza-2′-deoxyadenosine-5′-triphosphate] |  |  |  | 3.0 ± 0.2 | 3.4 ± 0.2 | DT50 value of ds1 isomer compared with the parent dA.I analog: similar
10 | COc1cc(C(OCc2cn([C@H]3C[C@H](O)[C@@H](COP(=O)(O)OP(=O)(O)OP(=O)(O)O)O3)c3nc(N)[nH]c(=O)c23)C(C)(C)C)c([N+](=O)[O-])cc1OC (single isomer, unassigned) [dG.V.d ds2, 7-[1-(4,5-dimethoxy-2-nitrophenyl)-2,2-dimethyl-propyloxy]methyl-7-deaza-2′-deoxyguanosine-5′-triphosphate] |  |  | 3.0 |  |  | DT50 in 1 mM NaN3, 50 mM DTT [3]: 0.8 ± 0.1 s; DT50 in 1 mM NaN3, No DTT [3]: 0.8 ± 0.1 s; DT50 values: 0.8 s
11 | COc1ccc([N+](=O)[O-])c(C(OCc2cn([C@H]3C[C@H](O)[C@@H](COP(=O)(O)OP(=O)(O)OP(=O)(O)O)O3)c3nc(N)[nH]c(=O)c23)C(C)(C)C)c1 (stereo partly shown) [dG.V.c ds1, 7-[1-(5-methoxy-2-nitrophenyl)-2,2-dimethyl-propyloxy]methyl-7-deaza-2′-deoxyguanosine-5′-triphosphate] |  |  |  |  |  | DT50 in 1 mM NaN3, 50 mM DTT [3]: 3.0 ± 0.1 s; DT50 in 1 mM NaN3, No DTT [3]: 3.5 ± 0.3 s; rate increases, dG.V.c compared with dG.V.a: 3.6 ×; faster photochemical cleavage rates compared with the corresponding 4-OMe isomers: 1.4 × fold
12 | CC(C)(C)[C@H](OCc1cn([C@H]2C[C@H](O)[C@@H](COP(=O)(O)OP(=O)(O)OP(=O)(O)O)O2)c2nc(N)[nH]c(=O)c12)c1ccccc1[N+](=O)[O-] [dG.V, 7-[(S)-1-(2-nitrophenyl)-2,2-dimethyl-propyloxy]methyl-7-deaza-2′-deoxyguanosine-5′-triphosphate] | 2.9 ± 0.2 | 3.0 ± 0.1 s |  |  |  | 
13 | CC(C)C(OCc1cn([C@H]2C[C@H](O)[C@@H](COP(=O)(O)OP(=O)(O)OP(=O)(O)O)O2)c2ncnc(N)c12)c1ccccc1[N+](=O)[O-] (single isomer, unassigned) [dA.III.a ds2, 7-[1-(2-nitrophenyl)-2-methyl-propyloxy]methyl-7-deaza-2′-deoxyadenosine-5′-triphosphate] |  |  | 2.0 | 2.1 ± 0.1 | 2.2 ± 0.1 | 
14 | Nc1nc(=O)n([C@H]2C[C@H](O)[C@@H](COP(=O)(O)OP(=O)(O)OP(=O)(O)O)O2)cc1COCc1ccccc1[N+](=O)[O-] [dC.I, 5-(2-nitrobenzyloxy)methyl-2′-deoxycytidine-5′-triphosphate] | 1.6 ± 0.2 | 2.0 ± 0.3 s |  |  |  | DT50 values: 2.0 s
15 | Nc1ncnc2c1c(COCc1ccccc1[N+](=O)[O-])cn2[C@H]1C[C@H](O)[C@@H](COP(=O)(O)OP(=O)(O)OP(=O)(O)O)O1 [dA.I, 7-(2-nitro-benzyloxy)methyl-7-deaza-2′-deoxyadenosine-5′-triphosphate] | 3.5 ± 0.1 | 3.6 ± 0.1 s |  | 3.5 ± 0.1 | 3.6 ± 0.1 | 

— patent publication US10041115B2, “3′-OH unblocked, fast photocleavable terminating nucleotides and methods for nucleic acid sequencing” (LASERGEN, INC., priority 2011, dated 2018)
